Tests used:
[1] = tested on: mouse model of hyperuricemia; assay: Uric acid level in serum of hyperuricemia model mice; assay type: in vivo, Kunming mice; conditions: xanthine i.p. hyperuricemia mice, dose 0.0002 g/10 g, once daily 11 days, mean ± SD
Method: (§1) The mouse model of hyperuricemia was established by intraperitoneal injection of xanthine to increase the content of uric acid precursor in the body and thus to increase the generation of uric acid. The mouse model of hyperuricemia was administered via gavage with the total flavonoid extract from Gynura formosana Kitam. The inhibition rates of uric acid and […] in serum of the mouse and the inhibition rate of the activity of xanthine oxidase in the liver of the mouse were recorded to study the effect of the total flavonoid extract on symptoms of gout caused by hyperuricemia.
(§2) The high, medium and low dose groups of the total flavonoid extract were administered via gavage with an aqueous solution of total flavonoid extract from Gynura formosana Kitam. at a dose of 24 mg/10 mL, 12 mg/10 mL, 6 mg/10 mL, respectively. The model group was administered an equal-volume of saline. All of the drugs were administered once daily for continuous 11 days.
(§3) After 1 hour at last administration, the mice received 10% xanthine dissolved in 0.8% CMC-Na via intraperitoneal injection. After 0.5 hours of modeling, the mice were sacrificed and blood was taken from eyeballs. Then the mice were dissected immediately and livers were taken and stored at a low temperature. […]
(§4) The index was calculated by referring to the instructions. […]

[2] = tested on: mouse model of hyperuricemia; assay: Creatinine level in serum of hyperuricemia model mice; assay type: in vivo, Kunming mice; conditions: dose 0.0002 g/10 g, once daily 11 days, mean ± SD
Method: as §1, §2, §3, §4

In the case of Oc1ncnc2[nH]ncc12 [allopurinol], the “Uric Acid” value [1] is reported as 22.71 ± 0.27 mg/L and the Creatinine [2] is reported as 23 ± 1 µM.

From patent US11298390B2, “Total flavonoids extract of Gynura formosana Kitam., preparation method therefor and use thereof for treating hyperuricemia” (ZHANGZHOU PIEN TZE HUANG PHARMACEUTICAL CO., LTD., priority 2017, dated 2022)
